These are literature values, as cited in patent US9512402B2, “Compositions for the preparation of mature dendritic cells” (Helmholtz Zentrum Munchen Deutsches Forschungszentrum fur …, priority 2006, dated 2016).

The subject of this data set is mature DCs. Conditions: DCs matured only with IFNα; Frankenberger 2005.

IFNα: the “EGFP protein expression following RNA transfer” value is reported as “failed to express EGFP protein”.
